The values below come from publication PMC12028158, “Synthesis and In Vitro Evaluation of the Anticancer Effect of Novel Phosphonium Vindoline Derivatives” (International Journal of Molecular Sciences, 2025).

“Also recorded” adds a separate entry of the source. Read-outs that look alike come from different tables or passages of the source. Where only a bound is given, the exact number is not on record here.

As a reminder, the IC50 is the concentration that gives 50% inhibition. A word on the inhibition: it is the relative decrease from the control value, in per cent.

The subject of data set [1] is SiHa. The experiment in a line: MTT antiproliferative assay. The data set is classed as cell-based, human. Particulars: SiHa, 72 h; for inhibition at 10 µM / inhibition at 30 µM: Homo sapiens. On the procedure: (§1) The antiproliferative properties of the tested compounds were additionally determined using the MTT assay against a panel of human adherent cancer cell lines isolated from breast (MCF-7 and MDA-MB-231), cervical (HeLa and SiHa), and ovarian (A2780) tumors and also on the NIH/3T3 fibroblast cell line (Table 3). IC50 values were calculated from a wider concentration range (0.1–30 μM) when higher than 50% cell growth inhibition was obtained at 10 μM (Table 4). Cisplatin was used as a reference compound. […] The noncancerous fibroblast cell line NIH/3T3 was used to gather preliminary data regarding the cancer selectivity of vindolin derivatives. […] The tumor selectivity of compound 9g, expressed as the ratio of IC50 on cancer cells and fibroblasts, is substantially higher than that of cisplatin (Table 4).
(§2) The antiproliferative effects of the prepared derivatives were evaluated in vitro using the MTT assay against a panel of human adherent cancer cell lines, including breast (MDA-MB-231, MCF-7), cervical (SiHa, HeLa), and ovarian (A2780) cancer cells. The noncancerous fibroblast cell line NIH/3T3 was included to obtain data concerning the tumor selectivity of the test substances. All cell lines were sourced from the European Collection of Cell Cultures (Salisbury, UK), except for SiHa (American Tissue Culture Collection (Manassas, VA, USA). All cell lines were maintained in Eagle’s Minimal Essential Medium (EMEM) supplemented with 10% fetal bovine serum (FBS), 1% non-essential amino acids, and a mixture of penicillin, streptomycin, and amphotericin B. The cells were maintained in a humidified atmosphere containing 5% CO2 at 37 °C. The media and the cell culture supplements were procured from Capricorn Scientific Ltd. (Ebsdorfergrund, Germany). Cells were seeded into 96-well microplates at 5000/well and, the next day, treated with vindoline derivatives at two concentrations (10 or 30 μM) for 72 h under cell culturing conditions. […] When higher than 50% cell growth inhibition was observed, the assay was repeated using a wide concentration range (0.1–30 μM). The IC50 values were calculated using GraphPad Prism software 10.3.1 (GraphPad Software, San Diego, CA, USA). Two independent experiments were performed with at least five replicates per condition.
(In general: Tetrazolium assays rely on reduction of a dye to a coloured formazan, in cell work by metabolically active cells.)

Data set [2] relates to 60 human tumor cell lines (NCI60). More on the design: method as in PMID 39063170. Particulars: previous work; cited from earlier work.
Data set [3] relates to NIH/3T3 (fibroblast). Put plainly: MTT antiproliferative assay. The format is cell-based. The settings on record: Mus musculus, 72 h; for inhibition at 10 µM: NIH3T3, 10 μM, read-out: Growth Inhibition (%) ± SEM; for inhibition at 30 µM: NIH3T3, 30 μM, read-out: Growth Inhibition (%) ± SEM (converted). How it is done: as §1, §2
Data set [4] has as its system MCF-7. Put plainly: MTT antiproliferative assay. The data set is classed as cell-based, human. Particulars: Homo sapiens, MCF7, 72 h; for inhibition at 30 µM: MCF-7, 30 μM, read-out: Growth Inhibition (%) ± SEM (converted). On the procedure:
as §1, §2

The subject of data set [5] is A2780. Put plainly: MTT antiproliferative assay. The format is cell-based, human. The settings on record: Homo sapiens, 72 h, 72 h; for inhibition at 10 µM: A2780, 10 μM; for inhibition at 30 µM: A2780, 30 μM, read-out: Growth Inhibition (%) ± SEM (converted). On the procedure: as §1, §2
The test system of data set [6] is MDA-MB-231. The experiment in a line: MTT antiproliferative assay. The data set is classed as cell-based, human. The settings on record: Homo sapiens, 72 h, 72 h; for inhibition at 10 µM: MDA-MB-231, 10 μM; for inhibition at 30 µM: MDA-MB-231, 30 μM. How it is done:
as §1, §2

In data set [7] the test system is HeLa. The experiment in a line: MTT antiproliferative assay. The data set is classed as cell-based, human. The settings on record: Homo sapiens, HeLa, 72 h; for inhibition at 10 µM: read-out: Growth Inhibition (%) ± SEM; for inhibition at 30 µM: read-out: Growth Inhibition (%) ± SEM (converted). How it is done: as §1, §2
Data set [8] concerns panel of human adherent cancer cell lines. The experiment in a line: MTT antiproliferative assay, whole cancer panel. Particulars: for anticancer activity / cytotoxic effect (in words): MTT panel. The data set is classed as cell-based. On the procedure:
as §1, §2

Setting [9] is: heading: Growth Inhibition ± SEM.
The mark [10] stands for this setting: read-out: Growth Inhibition (%) ± SEM.
The mark [11] stands for this setting: read-out: Growth Inhibition (%) ± SEM (converted).

For `N.N.[Cl][Pt][Cl]` [Cisplatin, reference compound], in data set [1] (MTT, read-out: IC50 Value (μM) ± SEM), the IC50 came to 15.5 ± 0.93 µM.

In the case of `CCC12C=CCN3CCC4(c5ccc(OC)cc5N(C)C4C(O)(C(=O)OC)C1O)C32` (centres unmarked) [compound 6, 17-desacetylvindoline], the “antiproliferative effects (in words)” value in data set [2] is “do not exert antiproliferative effects”.

Take `CCC12C=CCN3CCC4(c5ccc(OC)cc5N(C)C4C(O)(C(=O)OC)C1OC(=O)CCCBr)C32` (centres unmarked) [compound 7, 17-(O-4-bromobutanoyl)vindoline]: in data set [2], the “antiproliferative effects (in words)” value is listed as “do not exert antiproliferative effects”.

In the case of `CC[C@]12C=CCN3CC[C@@]4(c5ccc(OC)cc5N(C)[C@H]4[C@@](O)(C(=O)OC)[C@@H]1OC(=O)CC(c1ccccc1)(c1ccccc1)c1ccccc1)[C@@H]32` [compound 13, 17-(O-3,3,3-Triphenylpropanoyl)vindoline], the inhibition at 10 µM in data set [3] is 26.1 ± 1.55%; in data set [1] (setting [9]) it was < 10%; in data set [5] (setting [9]), < 10%; in data set [6] (setting [9]), < 10%; in data set [7], 39.9 ± 2.57%. For the same compound, the inhibition at 30 µM was 22.1% in data set [3]; < 10% in data set [1] (setting [9]); 20.8% in data set [4]; 11.9% in data set [5]; < 10% in data set [6] (setting [9]); 40.1% in data set [7]. In data set [8], the “anticancer activity / cytotoxic effect (in words)” value is “no cytotoxic effect”. In addition, the “antiproliferative effect (in words)” value in data set [8] (even at 30 μM) is “modest or negligible effect”.

`CC[C@]12C=CCN3CC[C@@]4(c5cc(NC(=O)C[P+](c6ccccc6)(c6ccccc6)c6ccccc6)c(OC)cc5N(C)[C@H]4[C@@](O)(C(=O)OC)[C@@H]1OC(C)=O)[C@@H]32` [compound 16]: the inhibition at 10 µM came to 24.9 ± 0.78% in data set [3]; 15 ± 0.34% in data set [1] (setting [10]); 31.1 ± 3.1% in data set [4] (MCF-7, 10 μM, read-out: Growth Inhibition (%) ± SEM); 19.4 ± 0.64% in data set [5] (setting [10]); 12.64 ± 0.03% in data set [6] (setting [10]); 21.7 ± 0.84% in data set [7]. In addition, the inhibition at 30 µM in data set [3] was 27.5%; in data set [1] (setting [11]), 36.8%; in data set [4] it was 47.1%; in data set [5] it was 29.5%; in data set [6] (setting [11]), 13.5%; in data set [7], 30%. Also, the “anticancer activity / cytotoxic effect (in words)” value in data set [8] is “no cytotoxic effect; also recorded: no remarkable anticancer activity”.
